Here are results for 1 molecule from patent US5047533A, “Acyclic purine phosphonate nucleotide analogs” (SRI International, priority 1990, dated 1991).

In this test the test system is reverse transcriptase (RT) from Moloney murine leukemia virus (MMLV) or avian myeloblastosis virus (AMV). As to the kind of experiment: Reverse transcriptase assay. It counts as biochemical. Particulars: 1 mM. The method, then:
For the reverse transcriptase assay, cloned reverse transcriptase (RT) (Bethesda Research Laboratories) from Moloney murine leukemia virus (MMLV) or avian myeloblastosis virus (AMV) (Seikagaku or Boehringer Mannheim) was used to direct DNA synthesis from a polyribonucleotide template and a oligodeoxynucleotide primer under reaction conditions (Houts, G. E., et al, J Virol (1979) 29:517.)
Reaction mixtures (100 μl) for the assay of MMLV RT consisted of 50 mM Tris-hydrochloride, pH 8.0, 6 mM MgCl2, 40 mM KCl, 100 μg bovine serum albumin per ml, 1 mM dithiothreitol, 0.1 mM polyadenylic acid (Pharmacia, Inc.), 0.1 mM oligo(dT)12-18 (Pharmacia, Inc.), 0.4 mM deoxythymidine triphosphate (dTTP), and 0.1 mM tritiated (93.5 Cl/mmol) dTTP (New England Nuclear). The compounds assayed were added in various concentrations and dilutions at a volume of 10 μl. Results were confirmed by duplicate assays. Dilutions were made using 10% aqueous DMSO. The total activity was measured by spotting on dry Whatman 3 mm filter disks and radioactivity was determined by liquid scintillation techniques. The assay time course was begun by adding 10 units of RT from MMLV or AMV and incubating the reaction at 37° C. […] Disks were dried under a heat lamp and the acid-insoluble product radioactivity was determined by liquid scintillation counting. […]

As for `CCOP(=O)(O)CCCOCn1cnc2c(=O)[nH]c(N)nc21` [Compound 2, 9(3'-ethylphosphono-1'-propyloxymethyl)guanine], the “inhibition of reverse transcriptase” value is given as 100%.
